Tests used:
Format in all cases: cell-based
[1] = system: beneficial oral bacteria and pathogenic oral bacteria; experiment: Twenty-four hour biofilm growth, conclusion over the panel; settings: threshold 1.6
Source text: Substrates that were able to increase the biofilm mass of at least one of the above beneficial bacteria while not or only minimally increasing the biofilm mass of the pathogenic bacteria are considered to be prebiotic compounds. The increase in biofilm formation of the tested bacteria in response to selected glycosides (β-methyl-D-galactoside and α-methyl-D-galactoside) was investigated by setting up biofilm growth assays in a nutritionally rich medium (brain heart infusion broth (BHI), Oxoid), over 24 hours. Late exponential growth phase liquid cultures were prepared by transferring the respective bacterium from blood agar plates to BHI and overnight incubation at 37° C. in an anaerobic atmosphere for A. viscosus, V. parvula, P. gingivalis, P. intermedia, T. forsythia, A. naeslundii, and C. sputigena, and in a 5% CO2 environment for S. salivarius, S. sanguinis, S. mitis, A. actinomycetemcomitans, S. mutans, and S. gordonii. […] Quantification of the stained biofilm was performed by measuring the absorbance at 630 nm using a Multiskan Ascent microplate reader (Thermo Scientific). […] For each day and for each combination, the average (mean) of the values obtained (as detailed above) for the four technical replicas was calculated to provide a single value for each combination on each day. […]

[2] = system: periodontopathogens; experiment: Mixed culture competition, conclusion over periodontopathogens; settings: S. salivarius and β-methyl-D-galactoside added (C) compared with A, B, after 24 h and 48 hours, p<0.001
Procedure: (§1) The pathogenic species Prevotella intermedia, Aggregatibacter actinomyctemcomitans, Porphyromonas gingivalis, Fusobacterium nucleatum, Streptococcus mutans and beneficial species Streptococcus salivarius are used as model organisms for experiments. Bacterial strains are grown on blood agar plates (Oxoid, Basingstoke, UK) supplemented with 5 μg/ml hemin (Sigma Chemical Co, St. Louis, Mo.), 1 μg/ml menadion and 5% sterile horse blood (Biotrading, Keerbergen, Belgium). Bacteria are collected from blood agar plates and transferred to 10 ml brain heart infusion broth (BHI) (Difco Laboratories, Detroit, Mich.). P. intermedia, P. gingivalis, and F. nucleatum were incubated overnight at 37° C. in an anaerobic atmosphere, A. actinomycetemcomitans, S. mutans and S. salivarius are incubated overnight at 37° C. in a 5% CO2 environment. Bacterial concentration is adjusted by measuring optical density at 600 nm.
In vitro effect of β-methyl-D-galactoside on pathogens: Bacterial solutions of periodontopathogens, P. intermedia, F. nucleatum, A. actinomycetemcomitans and P. gingivalis, cariogenic species S. mutans and beneficial species, S. salivarius, are prepared of which the optical density was adjusted to 1×10^7 CFU/ml. Experiments are carried out as a dual-species model in 24 well plates containing one pathogen (1 ml) and S. salivarius (1 ml). […]

[3] = system: Prevotella intermedia; experiment: Mixed culture (dual-species) competition, selective plating; settings: C: with S. salivarius; after 48 h
Procedure: as §1
(§2) In vitro effect of β-methyl-D-galactoside on pathogens: Bacterial solutions of periodontopathogens, P. intermedia, F. nucleatum, A. actinomycetemcomitans and P. gingivalis, cariogenic species S. mutans and beneficial species, S. salivarius, are prepared of which the optical density was adjusted to 1×10^7 CFU/ml. Experiments are carried out as a dual-species model in 24 well plates containing one pathogen (1 ml) and S. salivarius (1 ml). Different conditions are tested: the two microorganisms with (C) or without (D) β-methyl-D-galactoside (200 μl, dissolved in AD (aqua distillata)), only the periodontopathogen with (B) or without (A) β-methyl-D-galactoside (200 μl). β-methyl-D-galactoside is used at a final concentration of 1 mg/ml. When S. salivarius is not added to the mixture, BHI is added to obtain an equal volume. When β-methyl-D-galactoside is not added to the mixture, AD was added to obtain an equal volume. Plates are incubated at 37° C. in an anaerobic atmosphere. Selective microbial plating is carried out at 0 h, 24 h, and 48 h. Selective agar plates are prepared for each bacterium. P. intermedia and P. gingivalis are cultured on CDC anaerobe 5% sheep blood agar (Becton Dickinson, Franklin Lakes, N.J.), A. actinomycetemcomitans on Tryptic soy serum bacitracin vancomycin agar (TSBV) (Oxoid, Basingstoke, UK), F. nucleatum on crystal violet erythromycin (CVE) agar (Oxoid, Basingstoke, UK), S. mutans on tryptone yeast extract cystine sucrose bacitracin (TYCSB) agar (Oxoid, Basingstoke, UK) and S. salivarius on Phenylethyl alcohol agar (Becton Dickinson, Franklin Lakes, N.J.).
(§3) Statistical analysis: For statistical analysis of the data, the data are log10 transformed to obtain a normal distribution. A linear mixed model is built to assess differences between treatments. A correction for multiple hypothesis testing is carried out.

[4] = system: Aggregatibacter actinomycetemcomitans; experiment: as above; settings: C: with S. salivarius; after only 24 h
Procedure: as §1, §2, §3

[5] = system: Porphyromonas gingivalis; experiment: as above; settings: C: with S. salivarius; after only 24 h
Procedure: as §1, §2, §3

[6] = system: Fusobacterium nucleatum; experiment: as above; settings: C: with S. salivarius; after 48 h
Procedure: as §1, §2, §3

[7] = system: Streptococcus mutans; experiment: as above; settings: β-methyl-D-galactoside and S. salivarius present; p=0.9999
Procedure: as §1, §2, §3

Structure (SMILES)	prebiotic effect (biofilm growth), in words ([1]; at concentrations of 5, 10, and 20 μmol/ml)	prebiotic effect (biofilm growth), in words ([1]; at concentrations of 5, 10, 20 and 25 μmol/ml)	number of periodontopathogens, in words [2]	pathogen numbers, in words [3]	concentration of pathogen, in words [4]	concentration of pathogen, in words [5]	pathogen numbers, in words [6]	reduction of pathogen, in words [7]
CO[C@H]1O[C@H](CO)[C@H](O)[C@H](O)[C@H]1O [α-methyl-D-galactoside]	exhibited prebiotic effects							
CO[C@@H]1O[C@H](CO)[C@H](O)[C@H](O)[C@H]1O [β-methyl-D-galactoside]		exhibited prebiotic effects	significant decrease	significantly lower but remained slightly above zero	decline in concentration to zero	decline in concentration to zero	significantly lower but remained slightly above zero	no reduction is observed

Reference: patent publication US10307357B2, “Prebiotic oral care compositions containing an alkyl glycoside” (COLGATE-PALMOLIVE COMPANY, priority 2013, dated 2019)
